Data reported in patent US12037354B2, “Cyclic pantetheine derivatives and uses thereof” (VectivBio Comet AG, priority 2018, dated 2024).

What was measured:
HepG2 cells = assay: Glucose uptake Glo Assay, Example 821; format: cell-based
Procedure: The effect of compounds from the present disclosure on glucose uptake was determined in HepG2 cells (ATCC, HB-8065) using the glucose uptake Glo Assay Kit (Promega, 11343 according to manufacturer instructions. HepG2 cells were cultured in complete DMEM-glucose media (Gibco) supplemented with 10% FBS (37° C. incubator with 5% CO2) and seeded in 96-well plates at 30,000 cells/well. After removing the complete media, 100 μL/well of serum-free, high-glucose DMEM media were added to the wells and incubated overnight (37° C. incubator with 5% CO2). Media was then replaced with 100 μl/well DPBS containing 0.6°/o BSA and starved for 1 hour. Next, DPBS was removed and 45 μl/well of insulin (100 nM) or compounds (10 μM-50 μM) were added to the wells and incubated for 10 minutes (37° C. incubator with 5% CO2). Insulin and compounds were prepared in DPBS with 0.6% BSA with a final DMSO concentration of 0.1%. Next, 5 μl of 2DG (10 mM) in DPBS were added per well and allowed to incubate for 20 minutes followed by addition of 25 μl stop buffer. 37.5 μl of the mixture were then transferred to a new plate and 12.5 μl of Neutralization buffer added to the wells. After, 50 μl of 2DG6P detection Reagent were added and incubated for 0.5-1 hour at room temperature. Luminescence was measured with 0.3-1 second integration on a luminometer.

[1] = test system: Venular Endothelial cells (HUVEC) (3C system); assay: BioMAP 3C system, Example 825; format: cell-based, human
Procedure: The BioMAP platform (BioMAP® Diversity PLUS Panel from Eurofins) is an in vitro phenotypic profiling technology that screened the compounds of the present disclosure (hereafter indicated as test agents) in human primary cell-based systems modelling complex tissue and disease states. The BioMAP assays were performed using the Eurofin's BioMAP Technology Platform as (see references 1 to 13 in the example 824 section) to model different diseases on primary cell-based model systems. These systems consisted of either single primary cell types or co-culture cells. Adherent cell types were cultured or co-cultured in 96 or 384-well plates until confluence followed by the addition of compounds prepared in DMSO at a final concentration of ≤0.1%. […]
Following the general procedure as described in Example 824, Venular Endothelial cells (HUVEC) (3C system) were treated with IL-1β, TNFα, IFNγ for 24 h to model Th1 driven cardiovascular and chronic inflammation diseases in the presence or absence of the compounds. Biomarker read out were; Tissue Factor, ICAM-1, E-selectin, uPAR (CD87), IL-8, […], HLA-DR, proliferation and SRB (Sulfo-rhodamine i.e. staining for protein content).

[2] = test system: Venular Endothelial cells (HUVEC) (4H system); assay: BioMAP 4H system, Example 826; format: cell-based, human
Procedure: (§1) The BioMAP platform (BioMAP® Diversity PLUS Panel from Eurofins) is an in vitro phenotypic profiling technology that screened the compounds of the present disclosure (hereafter indicated as test agents) in human primary cell-based systems modelling complex tissue and disease states. The BioMAP assays were performed using the Eurofin's BioMAP Technology Platform as (see references 1 to 13 in the example 824 section) to model different diseases on primary cell-based model systems. These systems consisted of either single primary cell types or co-culture cells. Adherent cell types were cultured or co-cultured in 96 or 384-well plates until confluence followed by the addition of compounds prepared in DMSO at a final concentration of ≤0.1%. In each cell-based system, primary cells from heathy donors (2-6 donors) were pooled and treated with compounds at 1 and 10 μM dose 1 h prior to stimulation and remain in culture as indicated in
(§2) Example 825, Example 826, Example 827, Example 828, Example 829, Example 830, Example 831, Example 832, Example 833, Example 834, Example 835, Example 836 and Example 837. For on the BioMAP® Diversity PLUS® Panel, please see the following references, which are incorporate herein.
Following the general procedure as described in Example 824, Venular Endothelial cells (HUVEC) (4H system) were treated with IL-4 and histamine for 24 h to model Th2 driven allergy and autoimmunity in the presence or absence of compounds. Biomarkers read out were; MCP-1, Eotaxin-3. VCAM-1, P-selectin, uPAR (CD87), SRB and VEGFRII.

[3] = test system: Dermal fibroblasts (HDF3CGF system); assay: BioMAP HDF3CGF system, Example 833; format: cell-based, human
Procedure: as §1, §2
Following the general procedure as described in Example 824, Dermal fibroblasts (HDF3CGF system) were treated with IL-1β, TNFα and IFNγ, EGF, bFGF and PDGF-BB for 24 h in the presence or absence of the compounds to model fibrosis and chronic inflammation. Biomarkers read out were; MCP-1, VCAM-1, ICAM-1, Collagen-I, Collagen-III, IP-10, I-TAC, IL-8, MIG, EGFR, M-CSF, MMP-1, PAI-1, SRB, TIMP-1, TIMP-2 and proliferation was measured for 72 h.

[4] = test system: Lung fibroblast (MyoF system); assay: BioMAP MyoF system, Example 835; format: cell-based, human; details: 10 uM
Procedure: as §1, with “indicated in […]” for “indicated in”
Following the general procedure as described in Example 824, Lung fibroblast (MyoF system) were treated with TNFα and TGFβ for 48 h in the presence or absence of the compounds to model fibrosis, chronic inflammation, wound healing, matrix remodelling. Biomarker read out were; α-SM Actin, bFGF, VCAM-1, Collagen-I, Collagen-III, […], IL-8, decorin, MMP-1, PAI-1, TIMP-1, SRB

[5] = Homo sapiens, 20 min, read-out: % increase in Glucose Uptake
[6] = procedure of Example 825, concentration tested 1 uM
[7] = procedure of Example 825, concentration tested 10 uM

Structure (SMILES) | activation at 50 µM (HepG2 cells; [5]) | % increase in Glucose Uptake (HepG2 cells; concentration tested 50 uM) | % decrease in IL-8 ([1]; 3C system, 1 uM) | % increase in Proliferation (HUVEC) ([1]; 3C system, 10 uM) | % increase in Proliferation (HUVEC) ([1]; concentration tested 10 uM) | % decrease in IL-8 [1, 6] | % decrease in E-Selectin ([2]; 4H system, 1 uM) | % decrease in Eotaxin-3 ([2]; 4H system, 1 uM) | % decrease in VEGFRII ([2]; 4H system, 1 uM) | % decrease in MCP-1 ([2]; 4H system, 10 uM) | % decrease in E-Selectin ([2]; concentration tested 1 uM) | % decrease in Eotaxin-3 ([2]; concentration tested 1 uM) | % decrease in VEGFRII ([2]; concentration tested 1 uM) | % decrease in MCP-1 ([2]; concentration tested 10 uM) | % decrease in TIMP-1 ([3]; 1 uM) | % decrease in IL-8 ([1]; 3C system, 10 uM) | % decrease in IL-8 [1, 7] | % decrease in EGFR ([3]; 1 uM) | % decrease in TIMP-2 ([3]; 1 uM) | % increase in 72 Hour Proliferation ([3]; 10 uM) | further results
COC(=O)CCC(=O)SCCNC(=O)CCNC(=O)[C@@H]1OC(=O)OCC1(C)C [Compound 451] | ≥ 20% | ≥20% | ≥10% | ≥20% | ≥20% | ≥10% | ≥10% | ≥10% | ≥10% | ≥10% | ≥10% | ≥10% | ≥10% | ≥10% | ≥10% | – | – | – | – | – | % decrease in Collagen III ([3]; 1 uM): ≥10%
CCOP1(=O)OCC(C)(C)[C@H](C(=O)NCCC(=O)NCCSC(=O)CCC(=O)O)O1 (stereo partly drawn) [Compound 61] | ≥ 10% | ≥10% | ≥10% | – | – | ≥10% | – | – | – | ≥10% | – | – | – | ≥10% | – | – | – | – | – | – | % decrease in E-Selectin ([2]; 4H system, 10 uM): ≥10%; % decrease in E-Selectin ([2]; concentration tested 10 uM): ≥10%; % decrease in TIMP-1 ([3]; 10 uM): ≥10%
C/C=C/C(=O)SCCNC(=O)CCNC(=O)[C@@H]1OP(=O)(O)OCC1(C)C [Compound 36] | ≥ 30% | ≥30% | – | ≥20% | ≥20% | – | ≥20% | ≥10% | ≥20% | – | ≥20% | ≥10% | ≥20% | – | ≥10% | ≥10% | ≥10% | ≥10% | ≥20% | ≥10% | % decrease in MCP-1 ([2]; 4H system, 1 uM): ≥10%; % decrease in MCP-1 ([2]; concentration tested 1 uM): ≥10%; % decrease in MMP-1 ([3]; 10 uM): ≥10%; % decrease in uPA [4]: ≥10%
COC(=O)CCC(=O)SCCNC(=O)CCNC(=O)[C@@H]1OC(C)(CC(=O)OC)OCC1(C)C (stereo partly drawn) [Compound 633] | – | – | – | – | – | – | ≥20% | ≥10% | ≥10% | ≥10% | ≥20% | ≥10% | ≥10% | ≥10% | ≥20% | ≥20% | ≥20% | ≥10% | ≥10% | ≥10% | % increase in Proliferation (HUVEC) ([1]; 3C system, 1 uM): ≥20%; % increase in Proliferation (HUVEC) ([1]; concentration tested 1 uM): ≥20%; % increase in PAI-I ([3]; 10 uM): ≥10%; % decrease in uPA [4]: ≥10%
CC(=O)CC(=O)SCCNC(=O)CCNC(=O)[C@@H]1OP(=O)(O)OCC1(C)C [Compound 42] | – | – | – | – | – | – | ≥10% | ≥10% | ≥10% | – | ≥10% | ≥10% | ≥10% | – | – | – | – | – | – | – | activation at 10 µM (HepG2 cells; Homo sapiens, 20 min, 10 uM, read-out: % increase in Glucose Uptake): ≥ 30%; % increase in Glucose Uptake (HepG2 cells; concentration tested 10 uM): ≥30%; % decrease in TIMP-2 ([3]; 10 uM): ≥10%
